Like-named read-outs stand apart in the source and are kept apart here.
Test system: 280 human cancer cell lines
Experiment: OncoPanel cell proliferation assay (10-day)
Type: cell-based
Settings: Homo sapiens; for GI50: read-out: Cell Count GI50; for IC50: read-out: Cell Count IC50; for EC50: read-out: Cell Count EC50
[1] = C-4-II, C-4 II, Female GU - Cervix
[2] = C-33-A, C-33A, Female GU - Cervix
[3] = CAL-62, CAL-62, Endocrine - Thyroid
[4] = CCF-STTG1, CCF-STTG1, CNS - Glioma
[5] = CGTH-W-1, CGTH-W-1, Endocrine - Thyroid
[6] = CHP-212, CHP-212, CNS - Neuroblastoma
[7] = COLO-320-HSR, Colo 320 HSR, Colon
[8] = COLO-829, COLO 829, Skin (Melanoma)
[9] = COR-L105, COR-L105, Lung - NSCLC
[10] = Ca-Ski, Ca Ski, Female GU - Ovary

Compound `CC(C)=CCC[C@@H]1C(O)Oc2c(C)cc(O)c3c2[C@H]1CC[C@H]3C` (some centres unmarked) [Compound 2, 5,18-epoxyserrulat-14-en-8,18-diol] has a GI50 (BT-474, BT474, Breast) of over 30 µM, an IC50 (BT-474, BT474, Breast) of over 30 µM and an EC50 (BT-549, BT-549, Breast) of 25.8 µM. The GI50 (BT-549, BT-549, Breast) was 25.8 µM, the IC50 (BT-549, BT-549, Breast) was 25.9 µM and the EC50 (BV-173, BV-173, Leukemia) was 9.33 µM. The GI50 (BV-173, BV-173, Leukemia) was 9.33 µM, the IC50 (BV-173, BV-173, Leukemia) was 9.33 µM and the EC50 (BXPC-3, BxPC-3, Pancreas) was 13 µM. It also gave a GI50 (BXPC-3, BxPC-3, Pancreas) of over 30 µM, an IC50 (BXPC-3, BxPC-3, Pancreas) of over 30 µM and an EC50 (BeWo, Placenta) of 7.68 µM. For the same compound, the GI50 (BeWo, Placenta) was over 30 µM, the IC50 (BeWo, Placenta) was over 30 µM and the EC50 (C32, Skin (Melanoma)) was 19.2 µM. For the same compound, the GI50 (C32, Skin (Melanoma)) was 15.5 µM, the IC50 (C32, Skin (Melanoma)) was 19.2 µM and the EC50 [1] was 8.94 µM. It also gave a GI50 [1] of 9 µM, an IC50 [1] of 9.03 µM and an EC50 [2] of 12 µM. The GI50 [2] was 11.9 µM, the IC50 [2] was 12 µM and the EC50 (CA46, CA46, Lymphoma) was 3.83 µM. It also gave a GI50 (CA46, CA46, Lymphoma) of 3.82 µM, an IC50 (CA46, CA46, Lymphoma) of 3.83 µM and an EC50 (CAKI-1, Caki-1, Kidney) of 0.17 µM. The GI50 (CAKI-1, Caki-1, Kidney) was over 30 µM, the IC50 (CAKI-1, Caki-1, Kidney) was over 30 µM and the EC50 (CAKI-2, Caki-2, Kidney) was 28.8 µM. It also gave a GI50 (CAKI-2, Caki-2, Kidney) of 28.9 µM, an IC50 (CAKI-2, Caki-2, Kidney) of 29.1 µM and an EC50 (CAL-27, Cal 27, Head and Neck) of 7.64 µM. The GI50 (CAL-27, Cal 27, Head and Neck) was 7.62 µM, the IC50 (CAL-27, Cal 27, Head and Neck) was 7.64 µM and the EC50 [3] was 5.6 µM. It also gave a GI50 [3] of 5.78 µM, an IC50 [3] of 5.79 µM and an EC50 (CAMA-1, CAMA-1, Breast) of over 30 µM. For the same compound, the GI50 (CAMA-1, CAMA-1, Breast) was over 30 µM, the IC50 (CAMA-1, CAMA-1, Breast) was over 30 µM and the EC50 (CAPAN-1, Capan-1, Pancreas) was over 30 µM. For the same compound, the GI50 (CAPAN-1, Capan-1, Pancreas) was over 30 µM, the IC50 (CAPAN-1, Capan-1, Pancreas) was over 30 µM and the EC50 [4] was over 30 µM. The GI50 [4] was over 30 µM, the IC50 [4] was over 30 µM and the EC50 (CCRF-CEM, CCRFCEM, Leukemia) was 11.5 µM. For the same compound, the GI50 (CCRF-CEM, CCRFCEM, Leukemia) was 11.4 µM, the IC50 (CCRF-CEM, CCRFCEM, Leukemia) was 11.5 µM and the EC50 (CEM/C1, CEM-C1, Leukemia) was 3.26 µM. The GI50 (CEM/C1, CEM-C1, Leukemia) was 3.26 µM, the IC50 (CEM/C1, CEM-C1, Leukemia) was 3.26 µM and the EC50 (CFPAC-1, CFPAC-1, Pancreas) was 12.3 µM. The GI50 (CFPAC-1, CFPAC-1, Pancreas) was 13.4 µM, the IC50 (CFPAC-1, CFPAC-1, Pancreas) was 13.5 µM and the EC50 [5] was 5.83 µM. For the same compound, the GI50 [5] was 5.81 µM, the IC50 [5] was 5.83 µM and the EC50 (CHL-1, CHL-1, Skin (Melanoma)) was 14.3 µM. It also gave a GI50 (CHL-1, CHL-1, Skin (Melanoma)) of 14.2 µM, an IC50 (CHL-1, CHL-1, Skin (Melanoma)) of 14.3 µM and an EC50 [6] of 11.4 µM. It also gave a GI50 [6] of 11.1 µM, an IC50 [6] of 11.4 µM and an EC50 (CML-T1, CML-T1, Leukemia) of 3.69 µM. It also gave a GI50 (CML-T1, CML-T1, Leukemia) of 3.68 µM, an IC50 (CML-T1, CML-T1, Leukemia) of 3.69 µM and an EC50 (COLO 201, Colo 201, Colon) of 8.51 µM. It also gave a GI50 (COLO 201, Colo 201, Colon) of 8.45 µM, an IC50 (COLO 201, Colo 201, Colon) of 8.51 µM and an EC50 (COLO 205, Colo 205, Colon) of 10.7 µM. The GI50 (COLO 205, Colo 205, Colon) was 10.7 µM, the IC50 (COLO 205, Colo 205, Colon) was 10.7 µM and the EC50 (COLO 320DM, Colon) was 7.72 µM. For the same compound, the GI50 (COLO 320DM, Colon) was 7.67 µM, the IC50 (COLO 320DM, Colon) was 7.72 µM and the EC50 [7] was 11.6 µM. For the same compound, the GI50 [7] was 11.6 µM, the IC50 [7] was 11.6 µM and the EC50 [8] was 5.35 µM. It also gave a GI50 [8] of 4.93 µM, an IC50 [8] of 5.35 µM and an EC50 (COR-L23, COR-L23, Lung - NSCLC) of 23.8 µM. It also gave a GI50 (COR-L23, COR-L23, Lung - NSCLC) of 23.6 µM, an IC50 (COR-L23, COR-L23, Lung - NSCLC) of 23.8 µM and an EC50 [9] of 4.76 µM. For the same compound, the GI50 [9] was 4.61 µM, the IC50 [9] was 4.76 µM and the EC50 (CRO-AP2, CRO-AP2, Lymphoma) was 6.38 µM. For the same compound, the GI50 (CRO-AP2, CRO-AP2, Lymphoma) was 6.36 µM, the IC50 (CRO-AP2, CRO-AP2, Lymphoma) was 6.38 µM and the EC50 [10] was over 30 µM. For the same compound, the GI50 [10] was over 30 µM, the IC50 [10] was over 30 µM and the EC50 (Calu-1, Calu1, Lung - NSCLC) was 13.9 µM. For the same compound, the GI50 (Calu-1, Calu1, Lung - NSCLC) was 13.8 µM, the IC50 (Calu-1, Calu1, Lung - NSCLC) was 13.9 µM and the EC50 (Calu-6, Calu6, Lung - NSCLC) was 14.5 µM. It also gave a GI50 (Calu-6, Calu6, Lung - NSCLC) of 15.7 µM and an IC50 (Calu-6, Calu6, Lung - NSCLC) of 16.6 µM.
